# From US9718788B2, “Heteroaryl compounds useful as inhibitors of E1 activating enzymes” (MILLENNIUM PHARMACEUTICALS, INC., priority 2006, dated 2017)
# Molecular target: T1, recombinant human NAE enzyme (Homo sapiens, UniProt Q8TBC4)
# T1 construct: His (N); made in house; host or cells: Sf9 insect cells (baculovirus, Bac-to-Bac)
# T1 sequence (Q8TBC4 1-463): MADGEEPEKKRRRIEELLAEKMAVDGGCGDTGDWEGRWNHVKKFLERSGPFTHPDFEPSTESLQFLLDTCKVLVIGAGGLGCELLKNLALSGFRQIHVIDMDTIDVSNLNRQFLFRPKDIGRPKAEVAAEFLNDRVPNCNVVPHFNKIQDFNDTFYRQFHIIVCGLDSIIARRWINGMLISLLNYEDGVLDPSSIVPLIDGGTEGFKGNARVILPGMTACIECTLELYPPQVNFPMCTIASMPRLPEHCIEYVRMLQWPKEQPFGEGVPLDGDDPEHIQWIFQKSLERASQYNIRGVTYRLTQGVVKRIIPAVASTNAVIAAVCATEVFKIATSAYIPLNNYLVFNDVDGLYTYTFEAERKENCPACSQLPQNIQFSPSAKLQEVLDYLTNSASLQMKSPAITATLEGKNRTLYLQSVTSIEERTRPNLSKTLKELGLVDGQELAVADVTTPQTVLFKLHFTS
# T1 sequence (Q13564 1-534 partner): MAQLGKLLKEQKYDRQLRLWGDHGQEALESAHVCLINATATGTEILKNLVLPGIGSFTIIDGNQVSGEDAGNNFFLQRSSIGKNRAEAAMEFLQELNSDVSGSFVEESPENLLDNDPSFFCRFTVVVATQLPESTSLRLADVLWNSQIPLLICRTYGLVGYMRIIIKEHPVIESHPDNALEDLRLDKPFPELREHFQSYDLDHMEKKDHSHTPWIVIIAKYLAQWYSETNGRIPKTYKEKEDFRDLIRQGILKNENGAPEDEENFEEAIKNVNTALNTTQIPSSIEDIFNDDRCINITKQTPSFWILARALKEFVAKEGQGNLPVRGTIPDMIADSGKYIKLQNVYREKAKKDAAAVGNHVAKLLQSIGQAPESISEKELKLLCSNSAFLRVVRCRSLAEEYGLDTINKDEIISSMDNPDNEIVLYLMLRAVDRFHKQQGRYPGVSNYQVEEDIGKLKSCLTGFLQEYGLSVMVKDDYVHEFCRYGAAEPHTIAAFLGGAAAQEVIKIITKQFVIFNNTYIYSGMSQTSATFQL
# Experiment: Nedd8-Activating Enzyme (NAE) HTRF Assay
# Type: biochemical
# Settings: 20 μM ATP, bound given in nM
# Description: Following manufacturer instructions, baculoviruses were generated with the Bac-to-Bac Expression System (Invitrogen) for the following proteins: untagged NAEα (APPBP1; NP_003896.1), N-terminally His-tagged NAEJ (UBE1C; NP_003959.3), untagged SAEα (SAE1; NP_005491.1), N-terminally His-tagged SAE3 (UBA2; NP_005490.1), N-terminally His-tagged murine UAE (UBE1X; NP_033483). NAEα/His-NAEβ and SAEα/His-SAEβ complexes were generated by co-infection of Sf9 cells, which were harvested after 48 hours. His-mUAE was generated by single infection of Sf9 cells and harvested after 72 hours. Expressed proteins were purified by affinity chromatography (Ni-NTA agarose, Qiagen) using standard buffers. Nedd8-Activating Enzyme (NAE) HTRF Assay. The NAE enzymatic reaction totaled 50 μL and contained 50 mM HEPES (pH 7.5), 0.05% BSA, 5 mM MgCl2, 20 μM ATP, 250 μM GSH, 0.01 μM Ubc12-GST, 0.075 μM Nedd8-Flag and 0.20 nM recombinant human NAE enzyme. The enzymatic reaction mixture, with and without compound inhibitor, was incubated at room temperature 24° C. for 105 minutes in a 384-well plate before termination with 25 μL of Stop/Detection buffer (0.1M HEPES pH 7.5, 0.05% Tween20, 20 mM EDTA, 410 mM KF, 0.53 nM Europium-Cryptate labeled monoclonal anti-FLAG M2 antibody (CisBio International) and 8.125 μg/mL PHYCOLINK goat anti-GST allophycocyanin (XL-APC) antibody (Prozyme)). After incubation for 1 hour at 24° C., quantification of the FRET was performed on the Analyst™ HT 96.384 (Molecular Devices).
row,Structure (SMILES),IC50 [nM]
1,"NS(=O)(=O)OC[C@H]1C[C@@H](Nc2cc(N[C@H]3CCc4c(Cl)cccc43)ncn2)[C@H](O)[C@@H]1O [Compound I-24, {(1R,2R,3S,4R)-4-[(6-{[(1S)-4-chloro-2,3-dihydro-1H-inden-1-yl]amino}-pyrimidin-4-yl)-amino]-2,3-dihydroxycyclopentyl}methyl sulfamate]",≤ 500
2,"NS(=O)(=O)OC[C@H]1C[C@@H](Nc2cc(N[C@H]3CCc4ccccc43)ncn2)C[C@@H]1O [Compound I-25, [(1R,2S,4R)-4-({6-[(1S)-2,3-dihydro-1H-inden-1-ylamino]pyrimidin-4-yl}amino)-2-hydroxycyclopentyl]methyl sulfamate]",≤ 500
3,"NS(=O)(=O)OC[C@H]1C[C@@H](Nc2ncnc(N[C@H]3CCc4ccccc43)n2)[C@H](O)[C@@H]1O [Compound I-26, [(1R,2R,3S,4R)-4-({4-[(1S)-2,3-dihydro-1H-inden-1-ylamino]-1,3,5-triazin-2-yl}-amino)-2,3-dihydroxycyclopentyl]methyl sulfamate]",≤ 500
4,"NS(=O)(=O)OC[C@H]1C[C@@H](Nc2cc(NCc3ccccc3)ncn2)[C@H](O)[C@@H]1O [Compound I-27, ((1R,2R,3S,4R)-4-{[6-(benzylamino)pyrimidin-4-yl]amino}-2,3-dihydroxycyclopentyl)-methyl sulfamate]",≤ 500
5,"NS(=O)(=O)OC[C@H]1C[C@@H](NC(=O)c2ccncc2)[C@H](O)[C@@H]1O [Compound I-28, [(1R,2R,3S,4R)-2,3-dihydroxy-4-(isonicotinoylamino)cyclopentyl]methyl sulfamate]",> 500
6,"NS(=O)(=O)OC[C@H]1C[C@@H](Nc2cc(N[C@H]3CCc4ccccc43)ncn2)[C@H](O)[C@@H]1O [Compound I-29, [(1R,2R,3S,4R)-4-({6-[(1S)-2,3-dihydro-1H-inden-1-ylamino]pyrimidin-4-yl}-amino)-2,3-dihydroxycyclopentyl]methyl sulfamate]",≤ 500
7,"Cc1c(N[C@H]2CCc3ccccc32)ncnc1O[C@@H]1C[C@@H](COS(N)(=O)=O)[C@@H](O)C1 [Compound I-32, [(1S,2S,4R)-4-({6-[(1S)-2,3-dihydro-1H-inden-1-ylamino]-5-methylpyrimidin-4-yl}oxy)-2-hydroxycyclopentyl]methyl sulfamate]",≤ 500
8,"NS(=O)(=O)OC[C@@H]1C[C@@H](Cc2cc(N[C@H]3CCc4ccccc43)ncn2)C[C@@H]1O [Compound I-33, [(1S,2S,4S)-4-({6-[(1S)-2,3-dihydro-1H-inden-1-ylamino]pyrimidin-4-yl}methyl)-2-hydroxycyclopentyl]methyl sulfamate]",> 500
9,"NS(=O)(=O)OC[C@@H]1C[C@@H](Nc2ncnc3[nH]c(-c4ccccc4Cl)nc23)C[C@@H]1O [Compound I-34, ((1S,2S,4R)-4-{[8-(2-chlorophenyl)-9H-purin-6-yl]amino}-2-hydroxycyclopentyl)methyl sulfamate]",≤ 500
10,"CC1(C)C[C@H](Nc2cc(O[C@@H]3C[C@@H](COS(N)(=O)=O)[C@@H](O)C3)ccn2)c2ccc(Cl)cc21 [Compound I-35, {(1S,2S,4R)-4-[(2-{[(1S)-5-chloro-3,3-dimethyl-2,3-dihydro-1H-inden-1-yl]-amino}-pyridin-4-yl)oxy]-2-hydroxycyclopentyl}methyl sulfamate]",> 500
11,"Cn1c(-c2ccccc2)nc2ncnc(N[C@@H]3C[C@@H](COS(N)(=O)=O)[C@@H](O)C3)c21 [Compound I-36, {(1S,2S,4R)-2-hydroxy-4-[(7-methyl-8-phenyl-7H-purin-6-yl)-amino]cyclopentyl}methyl sulfamate]",> 500
12,"NS(=O)(=O)OC[C@@H]1C[C@@H](Nc2ncnc3[nH]c(-c4ccccc4Oc4ccccc4)nc23)C[C@@H]1O [Compound I-37, ((1S,2S,4R)-2-hydroxy-4-{[8-(2-phenoxyphenyl)-9H-purin-6-yl]amino}-cyclopentyl)methyl sulfamate]",≤ 500
13,"NS(=O)(=O)OC[C@@H]1C[C@@H](Nc2ncnc3[nH]c(-c4ccccc4)cc23)C[C@@H]1O [Compound I-38, {(1S,2S,4R)-2-hydroxy-4-[(6-phenyl-7H-pyrrolo[2,3-d]pyrimidin-4-yl)-amino]cyclopentyl}methyl sulfamate]",≤ 500
14,"NS(=O)(=O)OC[C@@H]1C[C@@H](Nc2ncnc3[nH]c(-c4cccc5c4oc4ccccc45)nc23)C[C@@H]1O [Compound I-39, {(1S,2S,4R)-4-[(8-dibenzo[b,d]furan-4-yl-9H-purin-6-yl)amino]-2-hydroxycyclopentyl}methyl sulfamate]",≤ 500
15,"NS(=O)(=O)OC[C@@H]1C[C@@H](Oc2cc(N[C@H]3CCCc4ccccc43)ncn2)C[C@@H]1O [Compound I-40, [(1S,2S,4R)-2-hydroxy-4-({6-[(1S)-1,2,3,4-tetrahydronaphthalen-1-ylamino]pyrimidin-4-yl}oxy)cyclopentyl]methyl sulfamate]",≤ 500
16,"NS(=O)(=O)OC[C@@H]1C[C@@H](Nc2ncnc3[nH]c(-c4cccc5c4OCCO5)nc23)C[C@@H]1O [Compound I-41, ((1S,2S,4R)-4-{[8-(2,3-dihydro-1,4-benzodioxin-5-yl)-9H-purin-6-yl]amino}-2-hydroxycyclopentyl)methyl sulfamate]",≤ 500
17,"NS(=O)(=O)OC[C@@H]1C[C@@H](Oc2cc(NCc3cccc4ccccc34)ncn2)C[C@@H]1O [Compound I-42, [(1S,2S,4R)-2-hydroxy-4-({6-[(1-naphthylmethyl)amino]pyrimidin-4-yl}-oxy)cyclopentyl]methyl sulfamate]",≤ 500
18,"C[C@H]1Cc2ccccc2[C@H]1Nc1cc(O[C@@H]2C[C@@H](COS(N)(=O)=O)[C@@H](O)C2)ncn1 [Compound I-43, {(1S,2S,4R)-2-hydroxy-4-[(6-{[(1S,2S)-2-methyl-2,3-dihydro-1H-inden-1-yl]-amino}pyrimidin-4-yl)oxy]cyclopentyl}methyl sulfamate]",≤ 500
19,"Cc1nc(N[C@H]2CCc3ccccc32)nc(N[C@@H]2C[C@H](COS(N)(=O)=O)[C@@H](O)[C@H]2O)n1 [Compound I-45, [(1R,2R,3S,4R)-4-({4-[(1S)-2,3-dihydro-1H-inden-1-ylamino]-6-methyl-1,3,5-triazin-2-yl}amino)-2,3-dihydroxycyclopentyl]methyl sulfamate]",≤ 500

# Same assay, conditions: 20 μM ATP, bound given in μM
row,Structure (SMILES),IC50 [nM]
1,"NS(=O)(=O)OC[C@H]1C[C@@H](NC(=O)c2ccccn2)[C@H](O)[C@@H]1O [Compound I-23, {(1R,2R,3S,4R)-2,3-dihydroxy-4-[(pyridin-2-ylcarbonyl)amino]cyclopentyl}-methyl sulfamate]",> 10000
2,"NS(=O)(=O)OC[C@H]1C[C@@H](NC(=O)c2ccncc2)[C@H](O)[C@@H]1O [Compound I-28, [(1R,2R,3S,4R)-2,3-dihydroxy-4-(isonicotinoylamino)cyclopentyl]methyl sulfamate]",< 10000
3,"Cc1nc(NCc2ccccc2)cc(N[C@@H]2C[C@H](COS(N)(=O)=O)[C@@H](O)[C@H]2O)n1 [Compound I-30, ((1R,2R,3S,4R)-4-{[6-(benzylamino)-2-methylpyrimidin-4-yl]amino}-2,3-dihydroxycyclopentyl)methyl sulfamate]",> 10000
4,"NS(=O)(=O)OC[C@@H]1C[C@@H](Oc2cc(N[C@H]3CCc4ccccc43)ncn2)C[C@@H]1O [Compound I-31, [(1S,2S,4R)-4-({6-[(1S)-2,3-Dihydro-1H-inden-1-ylamino]pyrimidin-4-yl}oxy)-2-hydroxycyclopentyl]methyl sulfamate]",> 10000
5,"NS(=O)(=O)OC[C@@H]1C[C@@H](Cc2cc(N[C@H]3CCc4ccccc43)ncn2)C[C@@H]1O [Compound I-33, [(1S,2S,4S)-4-({6-[(1S)-2,3-dihydro-1H-inden-1-ylamino]pyrimidin-4-yl}methyl)-2-hydroxycyclopentyl]methyl sulfamate]",< 10000
6,"CC1(C)C[C@H](Nc2cc(O[C@@H]3C[C@@H](COS(N)(=O)=O)[C@@H](O)C3)ccn2)c2ccc(Cl)cc21 [Compound I-35, {(1S,2S,4R)-4-[(2-{[(1S)-5-chloro-3,3-dimethyl-2,3-dihydro-1H-inden-1-yl]-amino}-pyridin-4-yl)oxy]-2-hydroxycyclopentyl}methyl sulfamate]",< 10000
7,"Cn1c(-c2ccccc2)nc2ncnc(N[C@@H]3C[C@@H](COS(N)(=O)=O)[C@@H](O)C3)c21 [Compound I-36, {(1S,2S,4R)-2-hydroxy-4-[(7-methyl-8-phenyl-7H-purin-6-yl)-amino]cyclopentyl}methyl sulfamate]",< 10000
